Literature values in patent publication US20250339446A1 (Kessler Foundation Inc., priority 2016, published 2025).

Legend:
[1] = system: bone mineral density (BMD); details: rat, hind limb unweighting; cited from earlier work
[2] = system: muscle mass, muscle strength, and bone; details: androgen-deficient men and older men with low testosterone levels; testosterone alone; cited from earlier work
[3] = daily administration; cited from earlier work
BMD in the vertebrae = details: men with idiopathic osteoporosis; cited from earlier work

Compound | immobilization-related decrease in BMD [1] | muscle mass, muscle strength, and bone [2] | absorption and elimination after transdermal application [3] | BMD in the vertebrae (BMD in the vertebrae)
C[C@]12CC[C@H]3[C@@H](CCC4=CC(=O)CC[C@@H]43)[C@@H]1CC[C@@H]2O [nandrolone] | blocked much of the immobilization-related decrease in BMD | – | – | –
C[C@]12CC[C@H]3[C@@H](CCC4=CC(=O)CC[C@@]43C)[C@@H]1CC[C@@H]2O [testosterone] | blocked much of the immobilization-related decrease in BMD | increase muscle mass, muscle strength, and bone | absorbed and eliminated over the course of a day | increased BMD in the vertebrae
